Results from US20100144853A1, “NOVEL COMBINED ADMINISTRATION” (priority 2008, published 2010).

Assay: Stability of COMPOUND A in human intestinal fluids, Procedure F (suspension, no separation of excess), first table
Type: in vitro ADME
Conditions: summary of Example 5
Method: Fasted Intestinal Fluids: the fluids from 4 different subjects were collected with a naso-jejunal tube after fasting overnight and pooled.
Procedure F (COMPOUND A and COMPOUND B in suspension, the degradation immediately stopped without separation of excess compound): Stock K=COMPOUND B suspension (0.5 mg/mL)
Dilute 1 part of COMPOUND B suspension (stock J) with 3 parts of FeSSIF pH6.5 solution.
500 μL of freshly thawed intestinal fluids (fasted and stimulated state) were added to 1.2 mg of COMPOUND A in a 1 mL glass vial. The suspended compound was stirred for 15 min at 37° C. to obtain wetting and a homogenous suspension. In parallel, 4 glass vials were prepared with 20 μL of a COMPOUND B suspension at different concentrations. These concentrations were obtained by mixing FeSSIF pH6.5 and COMPOUND B suspension (stock K) in different ratios, respectively 1:[…], 1:1, 0:1 to obtain 0, 1, 2 and 4% related to COMPOUND A. At time zero, 100 μL of COMPOUND A suspension preincubated at 37° C. were added to the 20 μL COMPOUND B suspension. The mixture was incubated at 37° C. with gentle stirring. After 15 min and 60 min, the reaction was stopped by mixing a 50 μL sample with 150 μL isopropanol and centrifuged at 5′000 rpm during 5 min. The clear supernatant was analyzed for the hydrolysis product and its oxidized form by HPLC.

## CCCCCCCCCCC[C@@H](C[C@@H]1OC(=O)[C@H]1CCCCCC)OC(=O)[C@H](CC(C)C)NC=O [COMPOUND B, 1-(3-hexyl-4-oxo-oxetan-2-yl)tridecan-2-yl 2-formyl-amino-4-methyl-pentanoate, reference compound]
  Effect of COMPOUND B on gastrointestinal enzyme induced hydrolytic degradation of COMPOUND A: efficiently prevents gastrointestinal enzyme induced hydrolytic degradation of COMPOUND A
